Reference: patent US20240315994A1, “SMALL MOLECULE MODULATORS OF FERROPTOSIS” (ARPEGGIO BIOSCIENCES, INC., priority 2021, published 2024)

Tests used:
[1] = tested on: HMOX1 gene transcription in IMR90 lung fibroblast cells; experiment: PRO-seq transcriptional response (HMOX1) in IMR90 cells; assay type: cell-based; settings: one hour, RSL3 1 μM, ML162 1 μM, erastin 10 μM
Source text: Expression of heme oxygenase 1 (HMOX1) mRNA may be used as a molecular response biomarker for induction of ferroptosis by direct inhibition of GPX4. To distinguish the transcriptional responses elicited by direct versus indirect inhibitors of GPX4, we profiled two direct GPX4 inhibitors, RSL3 and ML162, as well as one system Xc inhibitor, erastin, by Precision Run On followed by sequencing (PRO-seq) in IMR90 lung fibroblast cells. Briefly, IMR90 lung fibroblasts cells (a ferroptosis sensitive cell line) were treated with GPX inhibitors (RSL3 1 μM, ML162 1 μM) or system Xc inhibitor (erastin 10 µM) for one hour and samples were subjected to PRO-seq.

[2] = tested on: HT-1080 fibrosarcoma cells; experiment: HT-1080 single-concentration cell viability screen (Cell Titer Glo); assay type: cell-based; settings: 10 μM compound, 48 hours, duplicate, fraction of control
Source text: To identify potential covalent inhibitors of GPX4, we screened a panel of 294 diverse small molecules from the Enamine covalent inhibitor library (Catalog No. CSL-10480-0-Z-10, Enamine, Monmouth, NJ). Each compound contains either a chloroacetamide or acrylamide moiety theoretically capable of forming a covalent bond with a selenocysteine. The small molecule compounds were selected for a diversity of backbone structures. The screening protocol used the cell viability assay Cell Titer Glo® (available from Promega, Madison, WI). Cell Titer Glo® is a luminescent cell viability that determines the number of viable cells in culture by quantifying ATP, which indicates the presence of metabolically active cells. Briefly, HT-1080 fibrosarcoma cells were plated 24 hours prior to treatment with 10 µM of each compound in the screening panel. Cell Titer Glo® was used to read out cell viability after 48 hours of compound exposure. Data was collected in duplicate.
To determine whether similar molecules could offer other starting points for a medicinal chemistry campaign, we screened 95 additional compounds that contain a similar base structure to that of 8216. Briefly, HT-1080 fibrosarcoma cells were treated with 10 µM of a compound for 48 hours and cell viability was measured by Cell Titer Glo®. Data was collected in duplicate. […]

recombinant GPX4 protein = target: T1, recombinant GPX4 protein (Homo sapiens, UniProt P36969); experiment: GPX4 inhibitor screening assay (Cayman Chemical cat #701880); assay type: biochemical; settings: 25 μM, one hour incubation; RSL3 without the 14-3-3 adapter protein
T1 construct: purchased Cayman Chemical SO960203
T1 sequence (P36969 1-197): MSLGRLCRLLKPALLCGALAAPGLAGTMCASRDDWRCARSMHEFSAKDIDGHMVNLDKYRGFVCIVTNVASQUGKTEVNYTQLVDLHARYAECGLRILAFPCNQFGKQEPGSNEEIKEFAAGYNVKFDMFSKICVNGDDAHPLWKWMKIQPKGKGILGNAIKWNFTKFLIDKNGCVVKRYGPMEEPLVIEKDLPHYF
Procedure: To determine whether the five ferroptosis-inducing compounds (1816, 8216, 3362, 1962, and 0973) inhibit GPX4 enzymatic activity in vitro, we used a commercially available GPX4 inhibitor screening kit (Cayman Chemical cat #701880). This assay measures a compound's ability to prevent cumene hydroperoxide reduction by recombinant GPX4 protein. Briefly, the five ferroptosis-inducing compounds (25 μM) were incubated with recombinant GPX4 protein for one hour before being run in the Cayman Chemicals GPX4 inhibitor screening assay according to manufacturer's recommendations. The assay read out is a change in absorbance between NADPH and NADP. ML162 (25 μM) and RSL3 (25 μM) were used as positive control compounds.
An enzymatic assay that measures the reduction of […] by GPX4 was used to test the ability of compounds 8216, 6666, 8147, and 3793 to inhibit the activity of GPX4. The enzymatic assay was performed using a commercially available kit (Cayman cat #701880). The compounds were tested at 8 concentrations in duplicate with the compound being diluted following manufacturer's instructions. The enzymatic reaction was allowed to continue for 1 hour prior to reading out the kinetic shift in absorbance that occurs as result of GPX4 […].

[3] = tested on: HMOX1 expression in HT-1080 fibrosarcoma cells; experiment: HMOX1 induction by RT-qPCR in HT-1080 cells; assay type: cell-based
Procedure: We tested several of our ferroptosis-inducing compounds for their ability to rapidly induce HMOX1 by RT-qPCR. Briefly, HT-1080 fibrosarcoma cells were treated with either 10 µM or 5 µM of compound RSL3, 8216, 1962, 1816, or 3362 for four hours. RNA was isolated and reverse transcribed and HMOX1 expression quantified by qPCR. Each sample was normalized to an ACTB housekeeping gene control and fold change was calculated relative to a DMSO control.
We tested several of the ferroptosis-inducing compounds for their ability to rapidly induce expression of HMOX1. Briefly, HT-1080 fibrosarcoma cells were plated in 6-well dishes 24 hours prior to treatment with 5 μM of 8147, 6047, 3793, Rsl3, 6666 or 8216 with and without the addition of ferrostatin-1 to the media. Cells were harvested from the plate after 4 hours of compound treatment by adding Trizol reagent directly to the plate to lyse the cells and preserve the RNA. RNA was isolated using the Direct-zol 96-well RNA kit (Zymo cat #R2054). Subsequently purity and quantity of RNA in the samples were measured using a Nanodrop (Thermo Fisher cat #ND-ONE-W). RNA samples were normalized to 2 μg and reverse transcribed to cDNA using the Multiscribe High-Capacity Reverse Transcription kit (Thermo Fisher cat #4368814) following manufacturer's instructions. Quantitative real time PCR was carried out in triplicate using SYBR Select Master Mix (Thermo Fisher cat #4472903) following manufacturer's instructions with primers designed against HMOX1 and ActB from IDT. HMOX1 expression levels were normalized to ActB for each sample then fold change was determined against the vehicle control, DMSO.

For `COC(=O)c1ccc([C@@H]2c3[nH]c4ccccc4c3C[C@@H](C(=O)OC)N2C(=O)CCl)cc1` [RSL3, reference compound], the “HMOX1 transcriptional activation (PRO-seq)” value [1] was “robust transcriptional activation of the HMOX1 gene at one hour”, the “Average relative cell viability” value [2] was 0.00933 and the “reduction in GPX4 enzymatic activity” value (recombinant GPX4 protein) was “about 55%”. The “HMOX1 upregulation and rescue by ferrostatin-1 (RT-qPCR)” value ([3]; 5 μM, 4 hours, with and without ferrostatin-1) was “upregulation of HMOX1 which was rescued by the addition of ferrostatin-1, to varying degrees” and the “HMOX1 induction (RT-qPCR)” value ([3]; 10 μM or 5 μM, four hours, normalized to ACTB, relative to DMSO) was “induces HMOX1 dose-dependently”.
